Test [1] concerns the target T1, SHMT2 (mitochondrial serine hydroxymethyltransferase) (Homo sapiens, UniProt P34897).
T1 sequence (P34897 30-504): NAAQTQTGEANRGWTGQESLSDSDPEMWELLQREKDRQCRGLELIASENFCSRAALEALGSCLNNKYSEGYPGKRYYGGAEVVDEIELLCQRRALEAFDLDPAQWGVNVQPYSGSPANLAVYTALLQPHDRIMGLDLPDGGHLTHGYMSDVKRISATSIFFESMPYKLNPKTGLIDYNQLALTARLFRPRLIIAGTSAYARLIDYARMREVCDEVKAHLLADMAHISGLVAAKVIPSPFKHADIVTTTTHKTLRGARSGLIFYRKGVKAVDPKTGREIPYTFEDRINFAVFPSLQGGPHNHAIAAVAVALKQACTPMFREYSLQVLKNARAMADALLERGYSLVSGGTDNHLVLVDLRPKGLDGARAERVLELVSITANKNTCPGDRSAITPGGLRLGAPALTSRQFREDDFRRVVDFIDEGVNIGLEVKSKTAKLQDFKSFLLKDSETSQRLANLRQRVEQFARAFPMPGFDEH
Kind of test: DSF titration of apo-enzyme with PLP (Tm vs concentration). The format is binding. Also on record: apo-SHMT2.

The target in test [2] is T2, SHMT1 (cytosolic serine hydroxymethyltransferase) (Homo sapiens, UniProt P34896).
T2 sequence (P34896 2-483): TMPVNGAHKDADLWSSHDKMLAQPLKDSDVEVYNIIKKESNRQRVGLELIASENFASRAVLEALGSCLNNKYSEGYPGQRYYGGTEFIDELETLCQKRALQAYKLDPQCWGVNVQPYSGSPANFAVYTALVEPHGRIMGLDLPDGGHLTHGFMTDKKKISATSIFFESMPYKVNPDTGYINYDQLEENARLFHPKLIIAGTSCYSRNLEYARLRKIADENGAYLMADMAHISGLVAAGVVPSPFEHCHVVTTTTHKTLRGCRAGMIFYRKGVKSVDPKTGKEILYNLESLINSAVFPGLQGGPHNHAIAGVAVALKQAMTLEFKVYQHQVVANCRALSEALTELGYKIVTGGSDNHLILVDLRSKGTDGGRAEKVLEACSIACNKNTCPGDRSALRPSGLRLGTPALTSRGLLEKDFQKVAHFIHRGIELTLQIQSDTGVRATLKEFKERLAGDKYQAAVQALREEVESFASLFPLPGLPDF
Kind of test: spectrophotometric quinonoid-intermediate assay ([…] nm) with purified recombinant enzyme. The test is classed as biochemical.

In test [3] the target is T1, SHMT2 (mitochondrial serine hydroxymethyltransferase). The test is described as follows: spectrophotometric quinonoid-intermediate assay ([…] nm) with purified recombinant enzyme, mixed-type inhibition fit; supported by DSF. The format is biochemical. For orientation: DSF heats the sample and reads unfolding from a dye or from intrinsic fluorescence.

The structures appear in SMILES notation. Structures can show the parent of a compound that is named as a salt.

A word on the Kd: it is the free concentration of one partner at which half of the binding sites on the other are occupied at equilibrium, for simple one-to-one binding. A higher Kd goes with a looser complex. Take `Cc1ncc(COP(=O)(O)O)c(C=O)c1O` [PLP, pyridoxal-5′-phosphate]: the Kd in test [1] stood at 0.0003 mM. Broadly, the Ki is the equilibrium dissociation constant of an inhibitor or competing ligand from its target. Take `CN(C)C(=N)N=C(N)N` [MET, 1,1-dimethylbiguanide hydrochloride]: the Ki in test [2] was found to be 100 ± 33 mM; in test [3] it was 13.3 ± 2.1 mM.
